Laboratory results taken from patent US9718828B2 (MERCK SHARP & DOHME CORP., priority 2011, dated 2017).
Where a name gives a salt, the structure may show the parent alone. Read-outs that look alike come from different tables or passages of the source.

Biological target: Btk enzyme (His-Btk) (Homo sapiens (Human), UniProt Q06187)
Assay: Btk enzyme activity, IMAP fluorescence polarization assay (Assay Method A)
[1] = read-out: EC50 Btk activity values - Assay Method A, IMAP-FP, 60 min pre-incubation, 5 μM ATP, class 100-1000 is given as ≧100 nM-<1 μM

Btk enzyme (His-Btk), sequence (Q06187 whole entry): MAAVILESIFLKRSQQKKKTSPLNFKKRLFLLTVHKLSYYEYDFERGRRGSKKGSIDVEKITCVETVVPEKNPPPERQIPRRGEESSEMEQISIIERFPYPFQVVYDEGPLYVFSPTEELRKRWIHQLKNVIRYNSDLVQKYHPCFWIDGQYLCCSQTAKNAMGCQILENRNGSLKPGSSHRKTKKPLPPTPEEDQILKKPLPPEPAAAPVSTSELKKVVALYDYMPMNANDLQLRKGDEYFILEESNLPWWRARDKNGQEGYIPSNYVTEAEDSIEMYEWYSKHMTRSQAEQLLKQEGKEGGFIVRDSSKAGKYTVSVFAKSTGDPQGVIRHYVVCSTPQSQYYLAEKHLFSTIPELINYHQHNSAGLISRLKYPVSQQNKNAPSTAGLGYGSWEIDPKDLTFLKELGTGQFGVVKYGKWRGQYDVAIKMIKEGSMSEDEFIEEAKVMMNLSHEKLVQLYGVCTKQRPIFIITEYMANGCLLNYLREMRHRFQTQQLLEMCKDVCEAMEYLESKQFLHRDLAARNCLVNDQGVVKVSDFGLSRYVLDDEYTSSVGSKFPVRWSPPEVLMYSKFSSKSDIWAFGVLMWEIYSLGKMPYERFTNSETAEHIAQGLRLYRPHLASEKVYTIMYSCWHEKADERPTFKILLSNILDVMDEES
Protocol: Inhibition of kinase activity can be measured using the Immobilized Metal Assay for Phosphochemicals (IMAP) assay. IMAP is a homogeneous fluorescence polarization (FP) assay based on affinity capture of phosphorylated peptide substrates. IMAP uses fluorescein-labeled peptide substrates that, upon phosphorylation by a protein kinase, bind to so-called IMAP nanoparticles, which are derivatized with trivalent metal complexes.
Btk enzyme activity is measured using the IMAP (immobilized metal ion affinity-based fluorescence polarization) assay as outlined below.
Test compounds and Btk enzyme are pre-incubated 60 minutes at room temperature, before adding 5 μL/well of 200 nM Fluorescin labeled substrate peptide (Blk/Lyntide substrate, e.g. #R7188/#R7233, Molecular Devices) in KR-buffer. Final peptide substrate concentration in assay is 50 nM. […] Following incubation for 2 h at room temperature the enzyme reaction is stopped by adding 40 μL/well IMAP Progressive Binding Solution (according to suppliers (Molecular Devices) protocol using 75% 1× buffer A and 25% 1× buffer B with 1:600 Progressive Binding Solution). After 60 min incubation at room temperature in the dark the FP signal is read. […] Values are calculated as percentage of the difference in readout (ΔmPi) of the controls with and without ATP. EC50 values are determined by curve fitting of the experimental results using Activity Base.

EC50 [1] [nM] | EC50 [nM] | SMILES
< 10 |  | CCCc1ccnc(NC(=O)c2ccc(-c3nc([C@H]4CC[C@@H](OC)CC4)n4ccnc(N)c34)cc2)c1 [Example 42, 4-(8-amino-3-((cis)-4-methoxycyclohexyl)imidazo [1,5-a]pyrazin-1-yl)-N-(4-propylpyridin-2-yl)benzamide]
< 10 |  | Nc1nccn2c(C3CCCC3)nc(-c3ccc(C(=O)Nc4cc(C(F)(F)F)ccn4)cc3)c12 [Example 43, 4-(8-amino-3-cyclopentylimidazo[1,5-a]pyrazin-1-yl)-N-(4-(trifluoromethyl)pyridin-2-yl)benzamide, TFA salt]
 | < 10 | N#Cc1ccnc(NC(=O)c2ccc(-c3nc(C4CCCC4)n4ccnc(N)c34)cc2)c1 [Example 44, 4-(8-amino-3-cyclopentylimidazo[1,5-a]pyrazin-1-yl)-N-(4-cyanopyridin-2-yl)benzamide, TFA salt]
< 10 |  | Nc1nccn2c(C3CCCC3)nc(-c3ccc(C(=O)Nc4ccccn4)cc3)c12 [Example 45, 4-(8-amino-3-cyclopentylimidazo[1,5-a]pyrazin-1-yl)-N-(pyridin-2-yl)benzamide, TFA salt]
 | < 10 | CCC(=O)N1CCC[C@@H](c2nc(-c3ccc(C(=O)Nc4ccccn4)cc3)c3c(N)nccn23)C1 [Example 46, (R)-4-(8-amino-3-(1-propionylpiperidin-3-yl)imidazo[1,5-a]pyrazin-1-yl)-N-(pyridin-2-yl)benzamide]
 | 100 to 1000 | CS(=O)(=O)N1CCC[C@@H](c2nc(-c3ccc(C(=O)Nc4ccccn4)cc3)c3c(N)nccn23)C1 [Example 49, (R)-4-(8-amino-3-(1-(methylsulfonyl)piperidin-3-yl)imidazo[1,5-a]pyrazin-1-yl)-N-(pyridin-2-yl)benzamide]
 | < 10 | Nc1nccn2c([C@@H]3CCCN(C(=O)C4CC4)C3)nc(-c3ccc(C(=O)Nc4ccccn4)cc3)c12 [Example 52, (R)-4-(8-amino-3-(1-(cyclopropanecarbonyl)piperidin-3-yl)imidazo[1,5-a]pyrazin-1-yl)-N-(pyridin-2-yl)benzamide]
 | 10 to 100 | Nc1nccn2c([C@@H]3CCCN(C(=O)CO)C3)nc(-c3ccc(C(=O)Nc4ccccn4)cc3)c12 [Example 53, (R)-4-(8-amino-3-(1-(2-hydroxyacetyl)piperidin-3-yl)imidazo[1,5-a]pyrazin-1-yl)-N-(pyridin-2-yl)benzamide]
 | < 10 | CCC(=O)N1CCC[C@@H](c2nc(-c3ccc(C(=O)Nc4cc(C5CC5)ccn4)cc3)c3c(N)nccn23)C1 [Example 60, (R)-4-(8-amino-3-(1-propionylpiperidin-3-yl)imidazo[1,5-a]pyrazin-1-yl)-N-(4-cyclopropylpyridin-2-yl)benzamide]
 | < 10 | COCCC(=O)N1CCC[C@@H](c2nc(-c3ccc(C(=O)Nc4cc(C5CC5)ccn4)cc3)c3c(N)nccn23)C1 [Example 61, (R)-4-(8-amino-3-(1-(3-methoxypropanoyl)piperidin-3 yl)imidazo[1,5-a]pyrazin-1-yl)-N-(4-cyclopropylpyridin-2-yl)benzamide]
 | < 10 | CC1CC1C(=O)N1CCC[C@@H](c2nc(-c3ccc(C(=O)Nc4cc(C5CC5)ccn4)cc3)c3c(N)nccn23)C1 (stereo partly drawn) [Example 62, 4-(8-amino-3-((3R)-1-(2-methylcyclopropanecarbonyl)piperidin-3-yl)imidazo[1,5-a]pyrazin-1-yl)-N-(4-cyclopropylpyridin-2-yl)benzamide]
 | < 10 | CCNC(=O)N1CCC[C@@H](c2nc(-c3ccc(C(=O)Nc4cc(C5CC5)ccn4)cc3)c3c(N)nccn23)C1 [Example 63, (R)-3-(8-amino-1-(4-(4-cyclopropylpyridin-2-ylcarbamoyl)phenyl)imidazo [1,5-a]pyrazin-3-yl)-N-ethylpiperidine-1-carboxamide]
 | < 10 | CC(C)(F)C(=O)N1CCC[C@@H](c2nc(-c3ccc(C(=O)Nc4cc(C5CC5)ccn4)cc3)c3c(N)nccn23)C1 [Example 64, (R)-4-(8-amino-3-(1-(2-fluoro-2-methylpropanoyl)piperidin-3-yl)imidazo[1,5-a]pyrazin-1-yl)-N-(4-cyclopropylpyridin-2-yl)benzamide]

More lines, now with the values behind:

SMILES | EC50 [1] [nM] | EC50 [nM]
CCOC(=O)N1CCC[C@@H](c2nc(-c3ccc(C(=O)Nc4ccccn4)cc3)c3c(N)nccn23)C1 [Example 47, (R)-ethyl 3-(8-amino-1-(4-(pyridin-2-ylcarbamoyl)phenyl)imidazo[1,5-a]pyrazin-3-yl)piperidine-1-carboxylate] | < 10 | 
CCNC(=O)N1CCC[C@@H](c2nc(-c3ccc(C(=O)Nc4ccccn4)cc3)c3c(N)nccn23)C1 [Example 48, (R)-3-(8-amino-1-(4-(pyridin-2-ylcarbamoyl)phenyl)imidazo[1,5-a]pyrazin-3-yl)-N-ethylpiperidine-1-carboxamide] | < 10 | 
COCCC(=O)N1CCC[C@@H](c2nc(-c3ccc(C(=O)Nc4ccccn4)cc3)c3c(N)nccn23)C1 [Example 50, (R)-4-(8-amino-3-(1-(3-methoxypropanoyl)piperidin-3-yl)imidazo[1,5-a]pyrazin-1-yl)-N-(pyridin-2-yl)benzamide] |  | < 10
CN(C)CCCC(=O)N1CCC[C@@H](c2nc(-c3ccc(C(=O)Nc4ccccn4)cc3)c3c(N)nccn23)C1 [Example 51, (R)-4-(8-amino-3-(1-(4-(dimethylamino)butanoyl)piperi-din-3-yl)imidazo[1,5-a]pyrazin-1-yl)-N-(pyridin-2-yl)benzamide] |  | 10 to 100
NCCCCC(=O)N1CCC[C@@H](c2nc(-c3ccc(C(=O)Nc4ccccn4)cc3)c3c(N)nccn23)C1 [Example 54, (R)-4-(8-amino-3-(1-(5-aminopentanoyl)piperidin-3-yl)imidazo[1,5-a]pyrazin-1-yl)-N-(pyridin-2-yl)benzamide] |  | 10 to 100
Nc1nccn2c([C@@H]3CCCN(C(=O)[C@H]4CC[C@H](N)CC4)C3)nc(-c3ccc(C(=O)Nc4ccccn4)cc3)c12 [Example 55, 4-(8-amino-3-((R)-1-((trans)-4-aminocyclohexanecarbonyl)piperidin-3-yl)imidazo[1,5-a]pyrazin-1-yl)-N-(pyridin-2-yl)benzamide, TFA salt] |  | 10 to 100
Nc1nccn2c([C@@H]3CCCN(C(=O)C4CCOC4)C3)nc(-c3ccc(C(=O)Nc4ccccn4)cc3)c12 (stereo partly drawn) [Example 56, 4-(8-amino-3-((3R)-1-(tetrahydrofuran-3-carbonyl)piperidin-3-yl)imidazo[1,5-a]pyrazin-1-yl)-N-(pyridin-2-yl)benzamide, TFA salt] |  | 10 to 100
CO[C@@H](C)C(=O)N1CCC[C@@H](c2nc(-c3ccc(C(=O)Nc4ccccn4)cc3)c3c(N)nccn23)C1 [Example 57, 4-(8-amino-3-((R)-1-((S)-2-methoxypropanoyl)piperidin-3-yl)imidazo[1,5-a]pyrazin-1-yl)-N-(pyridin-2-yl)benzamide] |  | 10 to 100
CC[C@H](C)C(=O)N1CCC[C@@H](c2nc(-c3ccc(C(=O)Nc4ccccn4)cc3)c3c(N)nccn23)C1 [Example 58, 4-(8-amino-3-((R)-1-((S)-2-methylbutanoyl)piperidin-3-yl)imidazo[1,5-a]pyrazin-1-yl)-N-(pyridin-2-yl)benzamide] |  | 10 to 100
Nc1nccn2c([C@@H]3CCCN(C(=O)C4CCC4)C3)nc(-c3ccc(C(=O)Nc4cc(C5CC5)ccn4)cc3)c12 [Example 59, (R)-4-(8-amino-3-(1-(cyclobutanecarbonyl)piperidin-3-yl)imidazo[1,5-a]pyrazin-1-yl)-N-(4-cyclopropylpyridin-2-yl)benzamide] |  | < 10
